{"source": "patent US9751853B2", "about": "“Solid forms of 3-(5-amino-2-methyl-4-oxo-4H-quinazolin-3-yl)-piperidine-2,6-dione, and their pharmaceutical compositions and uses” (Celgene Corporation, priority 2011, dated 2017)", "key": {"[1]": {"test": "Dynamic Vapor Sorption (moisture sorption)", "format": "physicochemical", "conditions": "95% RH, room temperature", "procedure": "Dynamic Vapor Sorption (DVS): Hygroscopicity was determined on a Surface Measurement Systems DVS. Typically, a sample of about 2-10 mg was loaded into the DVS instrument sample pan. The sample was analyzed on a DVS automated sorption analyzer at room temperature. The relative humidity was increased from 0 to 95% RH at 10% RH step, then at 95% RH. The relative humidity was then decreased in a similar manner to accomplish a full adsorption/desorption cycle."}, "[2]": {"test": "Grinding studies, solid form by XRPD", "format": "physicochemical", "procedure": "Grinding Studies: Grinding experiments were performed using a Wig-L-Bug shaker. About 50 mg of Compound A hydrochloride was added to a polystyrene tube (1″×½″) with a Plexi bead (⅜″). The vial was capped and placed on the shaker for about 50 s. For wet grinding, drops of water were added to the vial and a wet paste was formed prior to placing on the shaker.\nX-ray Powder Diffraction (XRPD): XRPD analysis was conducted on a Thermo ARL X'TRA™ X-ray powder diffractometer using Cu Kα radiation at 1.54 Å. The instrument was equipped with a fine focus X-ray tube. The voltage and amperage of X-ray generator were set at 45 kV and 40 mA, respectively. The divergence slices were set at 4 mm and 2 mm and the measuring slices were set at 0.5 mm and 0.2 mm. Diffracted radiation was detected by a peltier-cooled Si(Li) solid-state detector. A theta-two theta continuous scan at 2.40°/min (0.5 sec/0.02° step) from 1.5°2θ to 40°2θ was used. A sintered alumina standard was used to check the peak position. In general, positions of XRPD peaks are expected to individually vary on a measurement-by-measurement basis by about +0.2°2θ. In general, as understood in the art, two XRPD patterns match one another if the characteristic peaks of the first pattern are located at approximately the same positions as the characteristic peaks of the second pattern. As understood in the art, determining whether two XRPD patterns match or whether individual peaks in two XRPD patterns match may require consideration of individual variables and parameters such as, but not limited to, preferred orientation, phase impurities, degree of crystallinity, particle size, variation in diffractometer instrument setup, variation in XRPD data collection parameters, and/or variation in XRPD data processing, among others. The determination of whether two patterns match may be performed by eye and/or by computer analysis."}}, "data": [{"smiles": "Cc1nc2cccc(N)c2c(=O)n1C1CCC(=O)NC1=O", "note": "(stereo not shown) [Compound A, 3-(5-amino-2-methyl-4-oxo-4H-quinazolin-3-yl)-piperidine-2,6-dione]", "values": [{"measurement": "Moisture Sorption at 95% RH", "setting": "[1]", "result": 3.19, "unit": "wt %"}]}, {"smiles": "Cc1nc2cccc(N)c2c(=O)n1C1CCC(=O)NC1=O", "note": "(stereo not shown) [Form D, 3-(5-amino-2-methyl-4-oxo-4H-quinazolin-3-yl)-piperidine-2,6-dione]", "values": [{"measurement": "Moisture Sorption at 95% RH", "setting": "[1]; listed as D", "result": 4.11, "unit": "wt %"}]}, {"smiles": "Cc1nc2cccc(N)c2c(=O)n1C1CCC(=O)NC1=O", "note": "(stereo not shown) [Form B, 3-(5-amino-2-methyl-4-oxo-4H-quinazolin-3-yl)-piperidine-2,6-dione]", "values": [{"measurement": "Moisture Sorption at 95% RH", "setting": "[1]; listed as B", "result": 0.11, "unit": "wt %"}]}, {"smiles": "Cc1nc2cccc(N)c2c(=O)n1C1CCC(=O)NC1=O", "note": "(stereo not shown) [Form E, 3-(5-amino-2-methyl-4-oxo-4H-quinazolin-3-yl)-piperidine-2,6-dione]", "values": [{"measurement": "Moisture Sorption at 95% RH", "setting": "[1]; listed as E", "result": 0.26, "unit": "wt %"}]}, {"smiles": "Cc1nc2cccc(N)c2c(=O)n1C1CCC(=O)NC1=O", "note": "(stereo not shown) [Form A, 3-(5-amino-2-methyl-4-oxo-4H-quinazolin-3-yl)-piperidine-2,6-dione]", "values": [{"measurement": "XRPD Result after grinding", "setting": "[2]; Dry grinding", "result": "Form A1"}, {"measurement": "XRPD Result after grinding", "setting": "[2]; Wet grinding (paste)", "result": "Form A1"}]}, {"smiles": "Cc1nc2cccc(N)c2c(=O)n1C1CCC(=O)NC1=O", "note": "(stereo not shown) [Form C, 3-(5-amino-2-methyl-4-oxo-4H-quinazolin-3-yl)-piperidine-2,6-dione]", "values": [{"measurement": "Moisture Sorption at 95% RH", "setting": "[1]; listed as C", "result": 0.17, "unit": "wt %"}]}]}
